The values that follow come from patent publication EP4813383A1, “USE OF TAFAMIDIS AND PHARMACEUTICALLY ACCEPTABLE SALT THEREOF IN PREVENTION, ALLEVIATION, OR TREATMENT OF DISEASES ASSOCIATED WITH HIF-2a” (Huaya Jiyuan (Shenzhen) Pharmaceutical Co., Ltd., priority 2024, dated 2025).

The test system of data set [1] is 5/6 nephrectomy (5/6Nx) rat model. Nature of the data set: 5/6 nephrectomy (5/6Nx) rat model. The format is in vivo, Male Sprague Dawley (SD) rats. The source says:
Male Sprague Dawley (SD) rats are used to establish a renal injury-induced anemia model through 5/6 nephrectomy surgery to investigate the erythropoiesis-promoting effect of tafamidis. After a one-week acclimation period, the rats are anesthetized with isoflurane, and the left kidney is exposed through a midline abdominal incision. Ligatures are placed at the upper one-third and lower one-third positions of the kidney, and the corresponding renal tissues outside the ligatures are excised. After a one-week recovery period, the right kidney is excised, with eight rats assigned to the nephrectomy group and the remaining eight rats serving as a non-operated normal control group. At week 4, renal dysfunction in the operated rats is confirmed by assessing serum urea and creatinine levels. Tafamidis and roxadustat are dissolved in a vehicle containing 10% dimethyl sulfoxide (DMSO), 30% polyethylene glycol 400 (PEG 400), 5% Tween-80, 1% hydrochloric acid (113.3 mM), 9% 0.1 N sodium hydroxide, and 45% normal saline. […] Starting from week 6, the tafamidis treatment group and the roxadustat group are orally administered the corresponding compound at 10 mg/kg daily (10 mg orally per day per 1 kg body weight of rat) for four weeks, while the sham-operated group and the 5/6 nephrectomy model (5/6Nx) rats are administered the vehicle based on the same dosing regimen. Hematological analysis is performed weekly, and urine samples are collected on the day following the final treatment, so as to determine urinary total protein (UTP) and urinary creatinine (UCREA). Hematological analysis is performed using the Sysmex Europe XN-2000 automated hematology analyzer, and urinalysis is performed using the Cobas C501 automated analyzer, both using commercially available kits in accordance with the manufacturers' instructions. After sample collection, the rats are euthanized. Statistical significance is determined by one-way analysis of variance (ANOVA), and then a Dunnett's test is performed for comparison with the 5/6Nx group (*P < 0.05, **P < 0.01, ***P < 0.001).

The test system of data set [2] is Unilateral ureteral obstruction (UUO)-induced mouse model. In words: Unilateral ureteral obstruction (UUO)-induced mouse model of renal injury and anemia. The format is in vivo, Male Balb/c mice. The settings on record: for Pathological score for renal tubular injury: H&E staining, Paller score, UUO control group 4.56 ± 0.19; for Reduction in fibrosis: Masson's trichrome staining, interstitial fibrosis, UUO control group 26.0 ± 1.9%; for Urea level: serum after final treatment, UUO control group 6.26 ± 0.14. An excerpt: Animal model establishment: Male Balb/c mice are anesthetized with isoflurane and then secured to an operating table with medical tape. After preparation of an abdominal midline incision site, the surgical part is disinfected with 75% ethanol-iodine tincture-ethanol. Subsequently, an incision is made along the linea alba of the mouse, and the incision is held open with a laparotomy retractor. The left ureter is isolated using a sterile cotton swab and curved forceps and ligated near the bladder dome using 3-0 suture. One drop of normal saline is added into the abdominal cavity, and then the abdomen is sutured. Following recovery on a heating pad, the mouse is returned to the cage, maintained under normal feeding and drinking conditions, and observed, thereby completing model establishment. For the sham-operated group, all procedures are the same as those of the model group except that no ligation is performed. For the treatment groups in the UUO model, male Balb/c mice, after a one-week acclimation period, are orally administered tafamidis (tafamidis treatment group) or roxadustat (roxadustat treatment group) by gavage for three consecutive days. The dose in the first tafamidis treatment group is 5 mg/kg/day, the dose in the second tafamidis treatment group is 10 mg/kg/day, and the dose in the roxadustat treatment group is 10 mg/kg/day. The drug administration is continued for seven days after unilateral ureteral obstruction surgery. A solvent is administered to the mice in the sham-operated group and the UUO control group based on the same dosing regimen. Serum analysis is performed after the final treatment. Serum analysis is performed using a Mindray BS-2000M automated […] analyzer with commercially available kits based on the manufacturer's instructions. After sample collection, the […] are euthanized. Statistical significance is determined by one-way analysis of variance (ANOVA), and then a Dunnett's test is performed for comparison with the UUO control group (*P < 0.05, **P < 0.01, ***P < 0.001).
Isolated left kidney samples from mice are fixed in 4% paraformaldehyde, dehydrated, embedded in paraffin, and sectioned. The tissue sections are 4 µm thick, and are subsequently subjected to histochemical staining such as H&E staining and Masson's trichrome staining. After staining, the sections are scanned using advanced three-dimensional histological imaging technology, and high-resolution images are captured using a Pannoramic DESK/MIDI/250/1000 system. H&E staining is analyzed to evaluate renal tubular injury. 10 fields are randomly selected from each sample, and examined at a 40× magnification. The degree of renal tubular injury is assessed using a semi-quantitative scoring system (Paller score): 0 (no injury), 1 (<25% injury), 2 (25% to 50% injury), 3 (50% to 75% injury), and 4 (>75% injury). In addition, the entire tissue section is assessed at a 0.7× magnification to determine the extent of collagen fiber deposition shown by Masson's trichrome staining. Semi-quantitative analysis of the collagen fiber area is performed using Image-Pro Plus 6.0 software. Statistical significance is determined by one-way analysis of variance (ANOVA), and then a Dunnett's test is performed for comparison with the UUO control group (*P < 0.05, **P < 0.01, ***P < 0.001).

[3] abbreviates: 10 mg/kg/day oral gavage, listed as Roxadustat.
Where [4] appears, read: 10 mg/kg daily oral for four weeks, urine on the day after final treatment.

On to `Cc1nc(C(=O)NCC(=O)O)c(O)c2ccc(Oc3ccccc3)cc12` [roxadustat], for which, in data set [1] (10 mg/kg daily oral for four weeks, urine on the day after final treatment, p < 0.01), the “UTP excretion levels, increase compared with the 5/6Nx group” value came to 3.3 fold. Moreover, in data set [1] (10 mg/kg daily oral, day 14, against the physiological range of the healthy control group), the “RBC levels (erythrocytosis)” value is reported as “notable erythrocytosis”. Further, in data set [2] (10 mg/kg/day oral gavage), the “Pathological score for renal tubular injury” value (“Pathological score” for short) is recorded as 4.78 ± 0.09, the Reduction in fibrosis is 21.8 ± 1.6% and the Urea level is 5.36 ± 0.10 mmol/L. Further, in data set [2] (setting [3]), the “Pathological score” value is listed as 4.78 ± 0.09, P = 0.98; the Reduction in fibrosis is recorded as 21.8 ± 1.6%, P = 0.37; the Urea level is on record as 5.36 ± 0.10, P < 0.001 mmol/L.
Regarding `O=C(O)c1ccc2nc(-c3cc(Cl)cc(Cl)c3)oc2c1` [tafamidis, 2-(3,5-dichlorophenyl)-1,3-benzoxazole-6-carboxylic acid], in data set [1] (setting [4]), the UTP excretion levels entry was “remain at baseline levels” and the “effect on UCREA” value was “essentially no effect”. In addition, the “red blood cell (RBC) count” value in data set [1] (10 mg/kg daily oral, week 4, 5/6Nx group 7.7 ± 0.3 × 10^12, p < 0.05) was 8.2 ± 0.3 × 10^12 cells/L. For the same molecule, in data set [2] (5 mg/kg/day oral gavage), the “Gross observation: pallor of the obstructed kidney” value is “significantly alleviates”; the “Pathological score” value is recorded as 2.85 ± 0.83, P < 0.05; the Urea level was 5.67 ± 0.23, P = 0.10 mmol/L. Besides, in data set [2] (10 mg/kg/day oral gavage), the “Pathological score” value was 2.93 ± 0.35, P < 0.05 and the Urea level is 5.28 ± 0.29, P < 0.05 mmol/L.
